Results on one compound are retold here after paper PMC3298469, “A selective and potent CXCR3 antagonist SCH 546738 attenuates the development of autoimmune diseases and delays graft rejection” (BMC Immunology, 2012).

A short description of data set [1]: plasma pharmacokinetics after oral dosing in Lewis rat. Particulars: 10 mg/kg oral in 0.4% methylcellulose, n = 3, read-out: AUC (0-24 hr). It counts as in vivo. How it is done:
SCH 546738 was tested at concentrations of 1-10 μM against a panel of 49 GPCR binding assays. Most of the assays were not affected by SCH 546738 (Table 2). […] In addition, SCH 546738 has a favourable pharmacokinetic profile in rodents. […] Therefore, SCH 546738 is suitable for in vivo preclinical studies.
Figure 4 Plasma concentration versus time profiles of SCH 546738 in Lewis rat and C57BL/6 mouse. SCH 546738 in 0.4% methylcellulose was administered orally at 10 mg/kg (mpk) in Lewis rats or 30 mpk in C57BL/6 mice. The plasma concentration of SCH 546738 in the blood was calculated as the mean of 3 animals (n = 3) at indicated time points post-dose. Their AUC from 0 to 24 hr is also calculated and indicated.

Data set [2] deals with Lewis rats. As to the kind of experiment: rat experimental autoimmune encephalomyelitis. In kind it is in vivo. The conditions noted are these: p.o. in 0.4% methylcellulose, varying doses; data not shown. Here is the method: Male Lewis rats challenged by injection of 50 µl (30 mg) of a guinea pig spinal cord homogenate in CFA into one footpad. The animals were treated starting at day 0 and oral dosing continued throughout the 3-week disease course, with varying amounts of SCH 546738 in 0.4% methylcellulose (MC) p.o. Animals were scored for disease severity: 0, no clinical signs; 1, flaccid tail; 2, hind limb weakness; 3, complete hind limb paralysis; 4, complete hind limb paralysis, forelimb weakness or paralysis; 5, death.
For CIA and EAE models, unpaired t-tests were performed using GraphPad InStat version 5.0.1 for Windows 98, GraphPad Software, San Diego California USA (http://www.graphpad.com). Statistical significance was evaluated by comparing the vehicle-treated group with the experimental group using unpaired t-test. Differences were considered significant when p values were <0.05.
Experimental autoimmune encephalomyelitis (EAE) is an animal model for human MS and development of disease is dependent on T cell infiltration into the CNS. In the murine model of EAE, SCH 546738 was tested in combination with interferon-β (IFN-β), a current first-line therapeutic for the amelioration of relapsing-remitting MS. C57BL/6 mice were primed by intravenous injection of pertussis toxin on day 0 and day 2. […] Disease progression was monitored by a scoring system as described in Methods. […]

The target of data set [3] is CCR7 (Homo sapiens, UniProt P32248). The experiment in a line: human activated T cell chemotaxis induced by CCL19. It counts as cell-based. Set-up: endogenous in cells. The conditions noted are these: 1, 10 or 100 nM compound. Here is the method:
The preparation of human activated T cells was performed as described previously. Human peripheral blood lymphocytes were prepared by Ficoll-Hypaque centrifugation, depleted of monocytes, and stimulated for 2 days with 1 µg/ml PHA (Murex Diagnostics, Dartford, U.K.) and 100 U/ml IL-2 (Sigma, St. Louis, MO) in RPMI 1640 supplemented with 10% fetal bovine serum (FBS), 2 mM L-glutamine, 100 µg/ml streptomycin, 100 U/ml penecillin, 1% non-essential amino acids and 2 mM HEPES. Following stimulation, peripheral blood lymphocytes were cultured in above media containing 5% conditioned media (Sigma) for up to 15 days.
Human activated T cell chemotaxis assays were performed using 96-well ChemoTx® microplates (Neuro Probe, Inc., Gaithersburg, MD) with a 3 µm filter as per manufacturers' instructions. Activated T cells were washed with RPMI medium twice, and then resuspended in the medium containing 20% FBS. 1.25 × 10^5 cells/reaction were mixed with indicated concentrations of the compound and placed on the filter. The compound and chemokines were mixed and placed in the bottom well of the ChemoTx system. […] The number of migrated cells was measured using the Cell Titer Glo Luminescent Assay from Promega (Madison, WI) as per vendor's instructions. Chemotaxis is expressed as a chemotactic index, which is a ratio versus the one without chemokines (spontaneous migration). […]

Each structure is given as a SMILES string.

Chain of CCR7 (P32248 25-378): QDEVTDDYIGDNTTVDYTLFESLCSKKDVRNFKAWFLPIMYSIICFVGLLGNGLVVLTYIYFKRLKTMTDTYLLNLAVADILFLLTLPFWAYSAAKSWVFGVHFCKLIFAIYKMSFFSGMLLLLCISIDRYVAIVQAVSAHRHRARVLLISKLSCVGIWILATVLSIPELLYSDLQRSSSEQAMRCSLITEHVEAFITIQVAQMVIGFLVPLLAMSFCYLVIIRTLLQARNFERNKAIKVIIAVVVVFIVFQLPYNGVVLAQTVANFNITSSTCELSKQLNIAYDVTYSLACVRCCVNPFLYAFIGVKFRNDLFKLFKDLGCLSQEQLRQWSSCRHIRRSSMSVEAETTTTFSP

For the compound `CC[C@H]1CN(c2nc(N)c(C(N)=O)nc2Cl)CCN1C1CCN(Cc2ccc(Cl)cc2)CC1` [SCH 546738], in data set [1], the AUC(0-t) was found to be 7.7 µM·h. The “effect on disease severity” value in data set [2] is listed as “reduced the severity of the disease in a dose-dependent manner”. In addition, the “effect on T cell chemotaxis induced by the CCR7 ligand CCL19” value in data set [3] is on record as “did not affect”.
